Measured values taken from PubChem BioAssay AID179 (DTP/NCI, 2004).
Where “and” joins values, the source holds several entries; their conditions need not be identical. Equal entries are not always repeated. Calls of active or inactive are those of the source.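 The calls were made as follows: active = compounds giving half or more protection of infected cells from virus-caused growth loss, again on retest; inactive = the rest.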 Where a SMILES comes first, the peptide text is derived from it. [ ]: non-standard residue; d: D form. The star is where a group is joined. Phe(4-NO2) = N[CH](Cc1ccc([N+](=O)[O-])cc1)C(=O)O; Boc = CC(C)(C)OC(=O)*; OtBu = CC(C)(C)O*

System: CEM cells HIV-1 protection, formazan growth assay
Test: NCI AIDS Antiviral Assay
Conditions: for IC50: measured here: growth of uninfected CEM cells
In short: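 Protection of CEM cells against HIV-1 measured as cell growth via soluble formazan read-out, with five concentrations tested on both infected and uninfected cells; failure to protect may reflect toxicity.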

| Compound | EC50 | IC50 | outcome |
| --- | --- | --- | --- |
| COCCN1C(=O)C2c3[nH]c4ccccc4c3C3CCC(C(C)(C)C)CC3C2C1=O (stereo not given) | > 200 µM | 39.8 µM | – |
| CN1CC(=O)N(C)c2nc[nH]c2C1=O | – | – | inactive |
| CC(=O)NC1NCCNC1=O (stereo not given) | > 200 µM | > 200 µM | – |
| CC1CC(NN(C)C)=C(C#N)C1(C#N)C#N (stereo not given) | > 200 µM | 11.7 µM | – |
| COC(=O)C(Cc1ccccc1)C(=O)C(CC(=O)OC(C)(C)C)NC(=O)OC(C)(C)C (stereo not given) | > 200 µM | > 200 µM | – |
| OCC(CN1CCCCC1)(CN1CCCCC1)CN1CCCCC1 | > 50.1 µM | > 50.1 µM | – |
| CC1CC(C)(C)N/C(=C/C(=O)N2Cc3cc4ccccc4nc3C2)O1 (stereo not given) | > 200 µM | > 200 µM | – |
| Nc1ccc(S(=O)(=O)C(=O)O)cc1 | > 1230 µM | > 1230 µM | – |
| CCOC(=O)C1=C(Nc2ccc(Cl)c(Cl)c2)OC/C1=N\NS(=O)(=O)c1ccc(C)cc1 | > 74.1 µM | 64.6 µM | – |
| O=C(Cc1ccccc1)NN1C(=O)C(Cl)C1c1ccccc1 (stereo not given) | > 31.6 µM | > 31.6 µM | – |
| S=c1[nH][nH]c(=S)s1 | 288 µM | 501 µM | – |
| CCCNC(=O)N(CC(C)(C)C)S(=O)(=O)c1ccc(Cl)cc1 | – | – | inactive |
| O=C1C(=O)c2ccccc2C(O)=C1Sc1ccccc1 | > 200 µM | 13.5 µM | – |
| CC(=O)Oc1ccc2c(c1)oc1c3ccc(OC(C)=O)cc3n(C)c(=O)c21 | > 200 µM | 107 µM | – |
| O=C1COC(c2ccccc2O)=NN1CCCN1CCCC1 | > 525 µM | 372 µM | – |
| CCCC/C=C(/CCCNCCc1ccccc1)[Si](C)(C)C | > 81.3 µM | > 81.3 µM | – |
| CC[C@]1(O)CC[C@H]2[C@@H]3CCC4=CC(=O)CC[C@@H]4[C@H]3CC[C@@]21CC | > 200 µM | 49 µM | – |
| O[C@@H]1CCC[C@@H]2NC[C@@H](c3ccc4c(c3)OCO4)[C@H]12 | > 200 µM | > 200 µM | – |
| CCCCCCCCCCCCCCCCNc1ccn(C2OC(COP(=O)(O)OC3CC(n4cc(C)c(=O)[nH]c4=O)OC3CO)C(O)C2O)c(=O)n1 (stereo not given) | > 200 µM | 19.1 µM | – |
| CCOC(=O)c1sc2c(c1OC(=O)c1cc(OC)c(OC)c(OC)c1)c(=O)n(-c1ccccc1)c(=S)n2-c1ccccc1 | > 200 µM | 4.47 µM | – |
| O=C1CC(=O)N(CCc2ccccc2)S(=O)(=O)N1CCc1ccccc1 | > 200 µM | 35.5 µM | – |

| Compound | EC50 | IC50 | outcome |
| --- | --- | --- | --- |
| N#CC(NNC(=O)c1ccccc1O)c1ccc(O)cc1 (stereo not given) | > 331 µM | 1.95 µM | – |
| COc1ccc(-c2ccccc2)cc1S | > 200 µM | > 200 µM | – |
| C=CCc1cc2c(cc1COCOCCOCCOCCCC)OCO2 | > 200 µM | 44.7 µM | – |
| CC(C)(C)[C@H]1CO[C@]2(c3ccccc3)[C@@H]3C[C@@H]3C(=O)N12 | – | – | inactive |
| O=C(Nc1cc2c(=O)[nH]c3ccccc3c2oc1=O)c1cnccn1 | > 100 µM | > 100 µM | – |
| COc1cc(C2SCC(=O)N2c2ccc(-n3c(-c4ccccc4)nc4ccccc4c3=O)cc2)cc(OC)c1OC (stereo not given) | > 200 µM | 178 µM | – |
| O=C(O)[C@@H]1CSC(c2ccc(Cl)cc2)N1 (stereo not given in full) | > 200 µM | > 200 µM | – |
| CC(=O)C(CN(C)Cc1ccccc1)C(c1ccccc1)c1c(O)c2ccccc2oc1=O (stereo not given) | > 38.9 µM | > 38.9 µM | – |
| N=S(c1ccccc1[N+](=O)[O-])c1ccccc1[N+](=O)[O-] | > 200 µM | 0.631 µM and 0.589 µM | – |
| COc1ccc(N=N/C(=N\NC(=O)c2cc(Br)ccc2O)c2ccc(N(CCC#N)CCC#N)cc2OC)cc1 | > 100 µM | 18.2 µM | – |
| COc1ccc(C[C@H](N)C(=O)N2C[C@H](CO)C[C@H](n3cnc4c(N(C)C)ncnc43)C2)cc1 | > 138 µM | 81.3 µM | – |
| CC(=O)NC(CCC(=O)OC(C)(C)C)C(=O)NC(CCC(=O)OC(C)(C)C)C(=O)NC(Cc1ccc([N+](=O)[O-])cc1)C(=O)NC(CCCCNC(=O)OC(C)(C)C)C(=O)NC(CCCCNC(=O)OC(C)(C)C)C(=O)NCC(=O)O (stereo not given) (Ac-E(OtBu)E(OtBu)[Phe(4-NO2)]K(Boc)K(Boc)G-OH; configuration not given here) | > 200 µM | > 200 µM | – |
| COc1cc(-c2cc(=O)c3cc(Cl)cc(Cl)c3o2)cc(OC)c1OC | > 100 µM | > 100 µM | – |
| Nc1c(C(=O)O)[nH]c(=O)[nH]c1=S | > 200 µM | 95.5 µM | – |
| COc1ccc(NC(=O)CC/C(CC(=O)c2ccccc2Cl)=N\Nc2nnc(C)n2N)cc1 | > 537 µM | 191 µM | – |
| NC(CCc1nc(-c2cccc([N+](=O)[O-])c2)cs1)C(=O)O (stereo not given) | – | – | inactive |
| O=[N+]([O-])c1ccc2ncccc2c1CCc1c([N+](=O)[O-])ccc2ncccc12 | – | – | inactive |
| COc1ccc(C2OCC3C2CO[C@H]3c2ccc(OC)c(OC)c2)cc1OC (mixture of isomers) | > 200 µM | 93.3 µM | – |
| COC(=O)c1cc(C#N)[nH]c1-c1ccsc1 | > 200 µM | 30.9 µM | – |
| Cc1nc(Nc2ccc(Cl)c(Cl)c2)sc1C(/C=C/c1ccc2c(c1)OCO2)=N/Nc1ccc([N+](=O)[O-])cc1[N+](=O)[O-] | > 2.34 µM | > 2.34 µM | – |
| Nc1[nH]c(=O)[nH]c(=O)c1Cc1cccc(Cl)c1 | > 200 µM | 39.8 µM | – |

| Compound | EC50 | IC50 | outcome |
| --- | --- | --- | --- |
| CCOC(=O)C(C)(C(=O)OCC)C1(c2ccccc2)OC(=O)c2ccccc21 (stereo not given) | – | – | inactive |
| CC1=NN(C(=O)CC(=O)Nc2ccc(Cl)cc2)C(=O)C1N=Nc1ccc(S(=O)(=O)c2ccc(N=NC3C(=O)N(C(=O)CC(=O)Nc4ccc(Cl)cc4)N=C3C)cc2)cc1 (stereo not given) | > 50.1 µM | > 50.1 µM | – |
| CN(/N=C\c1ccc2ccccc2c1)C1=NCCCN1 | > 200 µM | 10 µM | – |
| O=C(O)c1ccc(CI)cc1 | > 200 µM | 24.5 µM | – |
| C=C(CCC(Cl)C(COS(=O)(=O)c1ccc(C)cc1)OC(CCCO[Si](c1ccccc1)(c1ccccc1)C(C)(C)C)OCC)[Si](C)(C)C (stereo not given) | > 5.01 µM | > 5.01 µM | – |
| C=C1C[C@@H]2O[C@H]3[C@H]4[C@@H](C[C@@H](C)[C@@H](OC(C)=O)[C@H]42)[C@@H](C)CO[C@@]3(C)[C@H](OC(C)=O)C[C@H]1O | > 200 µM | 51.3 µM | – |
| CCOC(=O)NC(=O)c1cn(CCCCCCCCCCC(=O)NCCCN2CCN(CCCNC(=O)CCCCCCCCCCn3cc(C(=O)NC(=O)OCC)c(=O)[nH]c3=O)CC2)c(=O)[nH]c1=O | – | – | inactive |
| CN(C)c1ccc(/C=C(\C#N)c2cccc(Cl)c2)cc1 | > 200 µM | 0.0631 µM | – |
| S=C1N(c2ccc(Cl)cc2)C2=C(N=Nc3ccccc3Cl)C(=Nc3ccccc3S2)N1c1ccccn1 | > 46.8 µM | 21.9 µM | – |
| O=C(Nc1ccccc1S)c1ccccc1 | 6.76 µM | 10.5 µM | – |
| COc1cc(COC(=O)N2CCC2C(=O)O)c([N+](=O)[O-])cc1OC (stereo not given) | > 741 µM | > 741 µM | – |
| COc1nc2c(c(=O)[nH]1)N=C(c1ccc(Cl)cc1)CC(c1ccccc1)N2 (stereo not given) | > 200 µM | 55 µM | – |
| O=C(c1ccccc1)c1ccc(OCCOc2ccc(Nc3ccccc3)cc2)cc1 | > 6.61 µM | > 6.61 µM | – |
| Cc1c(C)c2ccc(OC(C)C(=O)O)cc2oc1=O (stereo not given) | – | – | inactive |
| O=C1C(C(c2ccc([N+](=O)[O-])cc2)N2CCOCC2)=C(O)C(c2ccccc2)N1c1ccccc1 (stereo not given) | > 100 µM | 24.5 µM | – |
| Clc1ccc2nc(-c3ccc(Cl)c(Cl)c3)cc(-c3ccccc3)c2c1 | > 200 µM | > 200 µM | – |
| C=C1C(=O)OC2/C=C(\C)CC/C=C(\C)CC(OC(=O)/C(=C/CO)CO)[C@@H]12 (stereo not given in full) | > 200 µM | 0.933 µM | – |
| O=C1c2ccccc2C(=O)c2c(Nc3cccc4c3C(=O)c3ccccc3C4=O)cccc21 | > 200 µM | > 200 µM | – |
| C=CCSc1n[nH]c(=S)c2nc[nH]c12 | > 200 µM | 129 µM | – |
| CCCCOC(=O)NC(Nc1cccc(C(F)(F)F)c1)(C(F)(F)F)C(F)(F)F | > 200 µM | 50.1 µM | – |
| O=Cc1ccccc1COC(=O)c1cc(C(=O)OCc2ccccc2C=O)c(C(=O)OCc2ccccc2C=O)cc1C(=O)OCc1ccccc1C=O | > 0.759 µM | > 0.759 µM | – |

| Compound | EC50 | IC50 | outcome |
| --- | --- | --- | --- |
| O=CC(O)C(O)C(O)C(O)COC(=O)NCCCCC(=O)C(F)(F)C(F)(F)C(F)(F)C(F)(F)C(F)(F)C(F)(F)C(F)(F)F (stereo not given) | > 200 µM | 24 µM | – |
| O=[N+]([O-])O.[Ga] | > 100 µM | > 100 µM | – |
| C=C(CCCCCCCCC)CC(=O)SCCNC(=O)CCNC(=O)C(O)C(C)(C)COP(=O)(O)OP(=O)(O)OCC1OC(n2cnc3c(N)ncnc32)C(O)C1OP(=O)(O)O (stereo not given) | > 200 µM | 72.4 µM | – |
| CCCCCCCCCC(=O)Oc1cccc2onc(C)c12 | > 24 µM | > 24 µM | – |
| OCC(O)CC[CH2][Sn]([Br])([c]1ccccc1)[c]1ccccc1 (stereo not given) | – | – | inactive |
| O=C1CCC(N2C(=O)C3C4c5ccccc5C(c5ccccc54)C3C2=O)C(=O)N1 (stereo not given) | > 200 µM | > 200 µM | – |
| CC(=O)OC1CC2C(C)(C)C(=O)C=C[C@]2(C)C2CCC3(C)C(c4ccoc4)C(=O)C4OC43[C@]12C (stereo not given in full) | – | – | inactive |
| COc1c2c(cc3oc(C)cc(=O)c13)OC(=N)C(C(N)=O)C2CC(=O)c1ccc(N)cc1 (stereo not given) | 45.7 µM | > 100 µM | – |
| Cn1c(=O)c2nc(-c3cccnc3)cnc2n(C)c1=O | > 200 µM | > 200 µM | – |
| CC(=O)N(c1ccccc1)[Si](C)(C)C | – | – | inactive |
| COC(=O)Cc1c([C@H]2[C@H](CC(=O)OC)c3ccccc3N2C(C)=O)[nH]c2ccccc12 | > 200 µM | 97.7 µM | – |
| O=C1c2cccc(O)c2Cc2c(O)cc(CO)cc21 | > 100 µM | 52.5 µM | – |
| S=c1cn[nH]c2ccccc12 | > 661 µM | 170 µM | – |
| NCCCNC(=O)c1csc(NC(=O)c2csc(NC(=O)CCCN)n2)n1 | > 437 µM | 174 µM | – |
| O=C(CC(C(=O)c1ccc(F)cc1)c1ccsc1)c1cccs1 (stereo not given) | > 200 µM | > 200 µM | – |
| OCc1cc2c(ccc3sc4ccc5sc6ccc7ncccc7c6c5c4c32)s1 | > 200 µM | 11.2 µM | – |
| CC1(C)S[C@H](c2ccccc2C(=O)O)N[C@@H]1CC(=O)O | – | – | inactive |
| CCOc1ccc2nc(NC(=O)C(=O)C(C(=O)c3ccccc3F)C3OC(=O)c4ccccc43)sc2c1 (stereo not given) | > 182 µM | 8.13 µM | – |
